Data: patent EP0340198B1, “Immunoassay for the detection of alpha-haloacetamides” (priority 1988, dated 1989)

Key:
[1] = test system: antibodies toward butachlor; experiment: inhibition ELISA for butachlor; type: binding, rabbits; details: standard solutions at 10 and 50 ppb in DI water
Text: (§1) The generation of antibodies toward butachlor (2-chloro-2′,6′-diethyl-N-(butoxymethyl)acetanilide), amidochlor (2-chloro-2′,6′-diethyl-N-acetamidomethyl acetanilide), and metolachlor (2-chloro-2′-ethyl-6′-methyl-N-(2-methoxy-1-methylethyl)acetanilide) were accomplished following identical procedures as those described for alachlor. The individual 14C-labeled chloroacetanilide was covalently bound to HSA (human serum albumin) with AHT, and to sheep IgG with AMSA.
(§2) The hapten-IgG conjugates were used to immunize rabbits. The corresponding hapten-BSA conjugates were then utilized in checkerboard assays to determine the presence of desired antibodies in the antisera. An inhibition ELISA for butachlor was set up with antiserum, butachlor-HSA screening antigen, and butachlor. Similar assays were also set up for amidochlor and metolachlor.
(§3) The sensitivity of the inhibition ELISA for butachlor, amidochlor, and metolachlor was tested with respective standards prepared in DI water. Using the best antiserum, the butachlor ELISA produced an IC50 of 8 ppb.
(§4) The specificity of the ELISA for butachlor, amidochlor, and metolachlor were tested using standard solutions of alachlor, acetochlor, butachlor, amidochlor, metolachlor, and propachlor at concentrations of 10 and 50 ppb in DI water. At these concentrations, the ELISA assay for butachlor, amidochlor, and metolachlor was each inhibited only by the respective free hapten, and not by any of the other chloroacetanilides.

[2] = test system: antibodies isolated from the serum of the first bleed of the rabbit; experiment: affinity column binding of 14C-labeled analytes from aqueous solution; details: for binding by the affinity column: 14C-labeled analogs, test of non-specific binding
Method: Affinity Chromatography. The preparation of affinity columns using rabbit antisera was as follows: The rabbit IgG's were purified by passing 5 mL of the antiserum through a column containing 5 mL of the swelled protein A-agarose gel. By monitoring the absorbance at 280 nm in the column effluent, the non-bound proteins were removed by washing with PBS, and the IgG's were then eluted with acetic acid at pH 2.3 (0.58% acetic acid and 0.15 M NaCl). The fractions containing the IgG's were combined and neutralized; based on the UV absorbance at 280 nm (absorbance/1.4 = mg/mL protein), approximately 33 mg of IgG were isolated from 5 mL of serum, which was then lyophilized and stored at -20°C. The reusable protein A-agarose column was stored in PBS containing 0.02% sodium azide at 4°C.
(§5) The protein A-purified IgG was immobilized onto Affigel-10 affinity support. Affigel-10 (5 mL) was washed 3 times with isopropyl alcohol and 3 times with cold distilled water in a Buchner funnel. The gel was then added to a solution of IgG (3 mL in 0.1 M HEPES buffer, pH 7.5) at 4°C. Following 4 hrs of stirring, the gel was precipitated by gentle centrifugation and washed with HEPES buffer (3 x 3 mL). The remaining active sites on the gel were blocked by resuspending the gel in water (2 mL) and adding ethanolamine HCl (0.5 mL, 1M), and stirring the mixture at 22°C for 1 hr. The affinity column was useful in adsorbing alachlor and other analytes from aqueous solutions. After binding the alachlor, the column was washed with water (2 mL/min) to remove unbound material and alachlor was eluted with 75% aqueous methanol.
Using the antibodies isolated from the serum of the first bleed of the rabbit, an affinity column for alachlor was constructed to study its utility as an isolation and purification tool. The IgG's in the serum of the rabbit immunized with the alachlor-IgG conjugate were purified with a protein A-agarose column. The purified IgG was then immobilized onto the Affigel-10 support. Alachlor (¹⁴C-labeled) in aqueous solution was passed through the column with a flow rate of 2 mL/min; the column was washed with water and eluted with 75% aqueous methanol. The radioactivity in the wash and eluent were determined by liquid scintillation counting. […] The capacity of the column was less than 1 µg, and once this level was exceeded, alachlor no longer bound to the column. The recovery of applied radioactivity generally ranged from 80% to 100%. In a second experiment, alachlor (0.5 µg) was dissolved into increasing volumes of water ranging from 1 mL to 100 mL.
To eliminate the possibility of non-specific binding of alachlor to the affinity column, other ¹⁴C-labeled analogs were also studied. These included acetanilide herbicides butachlor, acetochlor, metolachlor, and propachlor and the previously mentioned alachlor metabolites mercapturate and its methyl ester. The affinity column bound butachlor and acetochlor, but not metolachlor, propachlor, or mercapturate.

[3] = test system: antibodies toward metolachlor; experiment: inhibition ELISA for metolachlor; type: binding, rabbits; details: standard solutions at 10 and 50 ppb in DI water
Text: as §1, §2, §3, §4

[4] = test system: affinity column prepared from the serum of the first bleed of the rabbit immunized with the alachlor-IgG conjugate; experiment: affinity column extraction of alachlor and analogs from human urine; type: binding
Method: Affinity Chromatography. The preparation of affinity columns using rabbit antisera was as follows: The rabbit IgG's were purified by passing 5 mL of the antiserum through a column containing 5 mL of the swelled protein A-agarose gel. By monitoring the absorbance at 280 nm in the column effluent, the non-bound proteins were removed by washing with PBS, and the IgG's were then eluted with acetic acid at pH 2.3 (0.58% acetic acid and 0.15 M NaCl). […] The reusable protein A-agarose column was stored in PBS containing 0.02% sodium azide at 4°C.
as §5, with “The affinity column was useful in adsorbing alachlor and other analytes from aqueous solutions.” left out

[5] = test system: antibodies toward amidochlor; experiment: inhibition ELISA for amidochlor; type: binding, rabbits; details: standard solutions at 10 and 50 ppb in DI water
Text: as §1, §2, §3, §4

Row | Compound | inhibition of the ELISA assay for butachlor [1] | binding by the affinity column [2] | inhibition of the ELISA assay for metolachlor [3] | % 14C Eluent (75% CH3OH) ([4]; 1.0 µg/2 mL human urine) | % 14C Wash (H2O) ([4]; 1.0 µg/2 mL human urine) | inhibition of the ELISA assay for amidochlor [5] | extraction of alachlor by the column ([2]; 0.5 µg per 1 mL to 0.5 µ/50 mL (0.5 ppm to 10 ppb) in water) | efficiency of alachlor extraction by the column reduced by ([2]; 0.5 µg/100 mL (5 ppb) in water) | capacity of the column ([2]; alachlor) | % 14C Eluent (75% CH3OH) ([4]; 0.1 µg/2 mL human urine) | % 14C Wash (H2O) ([4]; 0.1 µg/2 mL human urine) | % 14C Eluent (75% CH3OH) ([4]; 0.6 µg/2 mL human urine) | % 14C Wash (H2O) ([4]; 0.6 µg/2 mL human urine) | % 14C Eluent (75% CH3OH) ([4]; 1.4 µg/2 mL human urine) | % 14C Wash (H2O) ([4]; 1.4 µg/2 mL human urine) | % 14C Eluent (75% CH3OH) ([4]; 1.2 µg/2 mL human urine) | % 14C Wash (H2O) ([4]; 1.2 µg/2 mL human urine)
1 | CCOCN(C(=O)CCl)c1c(C)cccc1CC [Acetochlor, acetochlor] | not | bound | not | 38.0% | 61.0% | not | – | – | – | – | – | – | – | – | – | – | –
2 | CCc1cccc(CC)c1N(COC)C(=O)CCl [Alachlor, α-chloro-2′,6′-diethyl-N-methoxymethyl acetanilide] | not | – | not | – | – | not | effectively extracted | 50% | less than 1 µg | 123.0% | 20.0% | 69.0% | 11.0% | 48.0% | 37.0% | – | –
3 | CC(C)N(C(=O)CCl)c1ccccc1 [Propachlor, propachlor] | not | not | not | – | – | not | – | – | – | – | – | – | – | – | – | 11.0% | 88.0%
